Experiments:
Barnyard grass [1] = assay: weed control effect in post emergence stage, greenhouse pot spray; assay type: in vivo; details: sprayed at 2-3 leaf stage, after 3 weeks
Method: (§1) The activity level standard of harmful plant damage (i.e. growth inhibition rate) is as follows: The above described growth control rate is fresh weight control rate. Monocotyledonous and dicotyledonous weed seeds and main crop seeds (i.e. wheat, corn, rice, soybean, cotton, oilseed, millet and Sorghum) were put into a plastic pot loaded with soil. Then covered with 0.5-2 cm soil, the seeds were allowed to grow in good greenhouse environment. The test plants were treated at 2-3 leaf stage 2-3 weeks after sowing. […] The solution was sprayed to the plants with a sprayer. Then the plants were cultured for 3 weeks in the greenhouse.

Flixweed = assay: as above; assay type: in vivo; details: 16 g/mu, sprayed at 2-3 leaf stage, after 3 weeks
Method: as §1

Ning Jing 43 = assay: post emergence stage greenhouse pot spray, rice safety; assay type: in vivo; design: key: 10: completely dead; above 90% growth inhibition rate; above 80% growth inhibition rate; above 70% growth inhibition rate; above 60% growth inhibition rate; above 50% growth inhibition rate; 4: above 30% growth inhibition rate; above 30% growth inhibition rate; above 20% growth inhibition rate; above 1-10% growth inhibition rate; 0: no effect; details: sprayed at 2-3 leaf stage, after 3 weeks
Method: as §1

Corn = assay: post emergence stage greenhouse pot spray, corn safety; assay type: in vivo; details: 16 g/mu, sprayed at 2-3 leaf stage, after 3 weeks; further: key: 10: completely dead; above 90% growth inhibition rate; above 80% growth inhibition rate; above 70% growth inhibition rate; above 60% growth inhibition rate; above 50% growth inhibition rate; 4: above 30% growth inhibition rate; above 30% growth inhibition rate; above 20% growth inhibition rate; above 1-10% growth inhibition rate; 0: no effect
Method: as §1

Wheat = assay: post emergence stage greenhouse pot spray, wheat safety; assay type: in vivo; details: 16 g/mu, sprayed at 2-3 leaf stage, after 3 weeks; further: key: 10: completely dead; above 90% growth inhibition rate; above 80% growth inhibition rate; above 70% growth inhibition rate; above 60% growth inhibition rate; above 50% growth inhibition rate; 4: above 30% growth inhibition rate; above 30% growth inhibition rate; above 20% growth inhibition rate; above 1-10% growth inhibition rate; 0: no effect
Method: as §1

Barnyard grass [2] = assay: weed control effect in transplanted rice field (pot, water application); assay type: in vivo, Echinochloa; details: 500 g a.i./ha, treated at 0.5 leaf stage, 14 days after treatment, naked eye, weed resistant to pyrazosulfuron-ethyl; further: key: 10: completely dead; above 90% growth inhibition rate; above 80% growth inhibition rate; above 70% growth inhibition rate; above 60% growth inhibition rate; above 50% growth inhibition rate; 4: above 30% growth inhibition rate; above 30% growth inhibition rate; above 20% growth inhibition rate; above 1-10% growth inhibition rate; 0: no effect
Method: (§2) Rice field soil was loaded into a 1/1,000,000 ha pot. The seeds of Echinochloa, Scirpus juncoides, Bidens tripartite and Sagittaria trifolia were sowed and gently covered with soil, then left to stand still in greenhouse in the state of 0.5-1 cm of water storage. The tuber of Sagittaria trifolia was planted in the next day or 2 days later. It was kept at 3-4 cm of water storage thereafter. The weeds were treated by dripping the WP or SC water diluents prepared according to the common preparation method of the compounds of the present invention with pipette homogeneously to achieve specified effective amount when Echinochloa, Scirpus juncoides and Bidens tripartite reached 0.5 leaf stage and Sagittaria trifolia reached the time point of primary leaf stage.
(§3) The fertility condition of Echinochloa, Scirpus juncoides, Bidens tripartite and Sagittaria trifolia 14 days after the treatment of the compound of the invention and the fertility condition of rice 21 days after the treatment of the compound of the invention respectively with the naked eye.
(§4) Note: The seeds of barnyard grass, rushlike bulrush, arrowhead and beggartick are collected from Heilongjing Province of China. Tests indicate that the weeds are resistant to common application rate of pyrazosulfuron-ethyl.

rushlike bulrush = assay: as above; assay type: in vivo, Scirpus juncoides; details: 500 g a.i./ha, treated at 0.5 leaf stage, 14 days after treatment, naked eye, weed resistant to pyrazosulfuron-ethyl
Method: as §2, §3, §4

Beggartick = assay: as above; assay type: in vivo, Bidens tripartite; details: 500 g a.i./ha, treated at 0.5 leaf stage, 14 days after treatment, naked eye, weed resistant to pyrazosulfuron-ethyl
Method: as §2, §3, §4

Arrowhead = assay: as above; assay type: in vivo, Sagittaria trifolia; details: 500 g a.i./ha, treated at primary leaf stage, 14 days after treatment, naked eye, weed resistant to pyrazosulfuron-ethyl
Method: as §2, §3, §4

Rice = assay: transplanted rice safety evaluation; assay type: in vivo; details: transplanted 3 leaf stage japonica rice, 500 g a.i./ha, treated 5 days after transplantation, 21 days after treatment, naked eye
Method: In addition, the rice field soil that loaded into the 1/1,000,000 ha pot was leveled to keep water storage at 3-4 cm depth. The 3 leaf stage rice (japonica rice) was transplanted at 3 cm of transplanting depth the next day. The compound of the present invention was treated by the same way after 5 days of transplantation.
as §3

[3] = test system: barnyard grass, rushlike bulrush, arrowhead and beggartick; assay: resistance tests of the weeds collected from Heilongjing Province; assay type: in vivo; details: common application rate; seeds collected from Heilongjing Province of China

SMILES	weed control effect (activity level), Barnyard grass (Barnyard grass [1]; 1 g/mu)	weed control effect (activity level), Barnyard grass (Barnyard grass [1]; 2 g/mu)	weed control effect (activity level), Barnyard grass (Barnyard grass [1]; 4 g/mu)	weed control effect (activity level), Barnyard grass (Barnyard grass [1]; 8 g/mu)	weed control effect (activity level), Barnyard grass (Barnyard grass [1]; 16 g/mu)	weed control effect (activity level), Flixweed (Flixweed)	damage (activity level), Ning Jing 43 (Ning Jing 43; 1 g/mu)	damage (activity level), Ning Jing 43 (Ning Jing 43; 2 g/mu)	damage (activity level), Ning Jing 43 (Ning Jing 43; 4 g/mu)	damage (activity level), Ning Jing 43 (Ning Jing 43; 8 g/mu)	damage (activity level), Ning Jing 43 (Ning Jing 43; 16 g/mu)	damage (activity level), Corn (Corn)	damage (activity level), Wheat (Wheat)	weed control effect (activity level), Barnyard grass (Barnyard grass [2])	weed control effect (activity level), rushlike bulrush (rushlike bulrush)	weed control effect (activity level), Beggartick (Beggartick)	weed control effect (activity level), Arrowhead (Arrowhead)	damage (activity level), Rice (Rice)	resistance of the weeds (in words) [3]
CCOC(=O)Oc1c(C(=O)c2ccc(S(C)(=O)=O)c(Cn3cc(C)cn3)c2Cl)c(C)nn1C [Compound 31]	3 (above 30% growth inhibition rate)	5 (above 50% growth inhibition rate)	6 (above 60% growth inhibition rate)	8 (above 80% growth inhibition rate)	9 (above 90% growth inhibition rate)	10	0	0	0	0	0	0	0	10	10	10	9 (above 90% growth inhibition rate)	1 (above 1-10% growth inhibition rate)	–
Cc1ccc(S(=O)(=O)Oc2c(C(=O)c3ccc(S(C)(=O)=O)c(Cn4nc(C)cc4C)c3Cl)c(C)nn2C)cc1 [Compound 33]	4 (above 30% growth inhibition rate)	6 (above 60% growth inhibition rate)	5 (above 50% growth inhibition rate)	7 (above 70% growth inhibition rate)	8 (above 80% growth inhibition rate)	10	0	0	0	0	0	0	0	10	10	10	10	1 (above 1-10% growth inhibition rate)	–
CCOC(=O)c1cnn(C)c1S(=O)(=O)NC(=O)Nc1nc(OC)cc(OC)n1 [pyrazosulfuron-ethyl]	–	–	–	–	–	–	–	–	–	–	–	–	–	–	–	–	–	–	resistant

From patent publication US11661413B2, “Pyrazole compounds or salts thereof, preparation method therefor, herbicidal composition and use thereof” (priority 2015, dated 2023)
